Laboratory results taken from patent US7560229B2, “Methods of use of the enzymes of mycothiol synthesis” (priority 2002, dated 2009).
In brackets after ≈: the same amount, converted by molar mass. Read-outs that look alike come from different tables or passages of the source.

Tests used:
[1] = test system: M. smegmatis chemical mutant 49; test: Isoniazid MIC by Estrip; type: cell-based; conditions: Mycolicibacterium smegmatis
[2] = test system: M. smegmatis transposon mutant mshA::Tn5; test: Isoniazid MIC by Estrip; type: cell-based; conditions: Mycolicibacterium smegmatis
[3] = test system: M. smegmatis mutant 49; conditions: cited from earlier work
[4] = test system: M. smegmatis parent strain mc^2155; test: Isoniazid MIC by Estrip; type: cell-based; conditions: Mycolicibacterium smegmatis; mc^2155, Estrip, 2-3 days at 37° C.
[5] = test system: M. smegmatis mc^2155; conditions: mc^2155, plating on antibiotic containing media, found earlier; cited from earlier work
[6] = test system: M. smegmatis complemented strain 49 (49::pAL0486); test: Isoniazid MIC by Estrip; type: cell-based; conditions: Mycolicibacterium smegmatis
[7] = test system: M. smegmatis complemented mshA::Tn5 (mshA::Tn5 pAL0486); test: Isoniazid MIC by Estrip; type: cell-based; conditions: Mycolicibacterium smegmatis
[8] = test system: M. smegmatis mutant I64; test: Antibiotic sensitivity test (MIC); type: cell-based
[9] = target: M. smegmatis Cys:GlcN-Ins ligase (MshC) (Mycolicibacterium smegmatis, UniProt A0QZY0); test: ATP-dependent Cys:GlcN-Ins ligase assay, substrate kinetics; conditions: [ATP]=1 mM, [Cys]=100 μM
M. smegmatis Cys:GlcN-Ins ligase (MshC), sequence (A0QZY0 whole entry): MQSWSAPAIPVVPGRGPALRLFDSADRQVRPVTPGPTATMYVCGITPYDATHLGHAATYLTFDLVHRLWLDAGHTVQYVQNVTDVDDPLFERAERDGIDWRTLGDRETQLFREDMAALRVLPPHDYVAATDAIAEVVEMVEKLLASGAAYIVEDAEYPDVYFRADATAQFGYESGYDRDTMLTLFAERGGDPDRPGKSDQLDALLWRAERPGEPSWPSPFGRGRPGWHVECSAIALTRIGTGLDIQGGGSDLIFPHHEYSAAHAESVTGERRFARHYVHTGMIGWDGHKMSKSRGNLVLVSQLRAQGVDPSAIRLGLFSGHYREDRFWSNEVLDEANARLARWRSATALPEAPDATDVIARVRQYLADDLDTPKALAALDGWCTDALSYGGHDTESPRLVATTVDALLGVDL
Protocol: (§4) A minor modification of the protocol described by Anderberg et al (supra) was used for routine measurement of ATP-dependent ligase activity. The enzyme activity was assayed in a final volume of 25 μL containing 12.5 μL of the ligase in different dilutions, 50 μM GlcN-Ins, 100 μM Cys (Calbiochem), 1 mM ATP (Sigma), 1 mM MgCl2 (Fisher), 1 mM DTT (Calbiochem), 25 mM N-2-hydroxyethylpiperazine-N′-2-ethanesulfonic acid (HEPES) (Sigma), pH 7.5, and 35 μM each of the protease inhibitors (Sigma) N-α-p-tosyl-L-phenylalanylchloromethyl ketone and N-α-p-tosyl-L-lysinechloromethyl ketone. The mixture was incubated at 37° C. for 30 min. The assay was terminated by addition of 25 μL of 8 mM mBBr in acetonitrile and heating the mixture at 60° C. for 5 min to derivatize the thiols. The derivatization was quenched with the addition of 150 μl of 10 mM methanesulfonic acid and vortexing. HPLC analysis of CySmB-GlcN-Ins and CySmB was carried out by HPLC using a Beckman Ultrasphere IP (250×4.6 mm) analytical column fitted with a Brownley OD-GU 5 μ C-18 cartridge using the following linear gradients: 0 min., 100% A (0.1% TFA in water); 10 min, 100% A; 30 min, 80% A; 33 min, 100% B (7.5% methanol in acetonitrile); 36 min, 100% B; 38 min, 100% A; 60 min, 100% A (reinjection). The flow rate was 1 mL/min. and the fluorescence detection was accomplished with a 370 nm excitation filter and a 418-700 nm emission filter. The Vmax and Km values were calculated by least-squares analysis of Eadie-Hofstee plots with initial rate data using KaleidaGraph 3.5 (Synergy Software).

[10] = test system: M. smegmatis transposon mutant Tn2 (MshC deficient); type: cell-based; conditions: Tn2, from MIC
Protocol: (§1) To test this hypothesis, Tn1, Tn2, and I64 were grown on PBT plates supplemented with increasing amounts of the alkylating agents mBBr, iodoacetamide, and 1-chloro-2,4-dinitrobenzene (CDNB). The alkylating agents were poured into the molten agar.

[11] = test system: M. smegmatis chemical mutant I64 (MshC deficient); type: cell-based; conditions: I64, from MIC
Protocol: as §1

[12] = test system: M. smegmatis transposon mutant Tn1 (MshC deficient); type: cell-based; conditions: Tn1, from MIC
Protocol: as §1

[13] = test system: M. smegmatis mutant Tn2; type: cell-based
Protocol: (§2) To determine sensitivity to redox cycling agents, disk assays were performed. Briefly, cells were grown to mid-log phase and a lawn of cells was plated onto PBT or LB plates supplemented with appropriate antibiotics. Various amounts of redox-cycling agents plumbagin, and […] menadione and nitrofurantoin were added to the disk in 10 μl volume and allowed to dry. The disks were placed onto the lawn of cells and incubated 2-3 days.

[14] = test system: M. smegmatis mutant Tn1; type: cell-based
Protocol: as §2

[15] = test system: M. smegmatis mutant I64; type: cell-based
Protocol: as §2

[16] = test system: M. smegmatis mc^2155 (wild type); test: Disk assay, redox cycling agents, zone of inhibition; type: cell-based
Protocol: as §2

[17] = test system: M. smegmatis mutant Tn2
Protocol: (§3) Peroxide sensitivity was determined by incubating cells (2.5×10^7 per ml) at 37° C. in Middlebrook 7H9 medium with 0.4% glucose and 0.05% TWEEN® 80 containing hydrogen peroxide at the desired level for 2 hours with shaking. Cells were diluted in fresh medium and plated on 7H10 agar. Colonies were counted when they achieved a diameter of 1-2 mm, which required 4-5 days for the wild type strain and up to 10 days for MSH-deficient mutant strains.

[18] = test system: M. smegmatis mutant Tn1
Protocol: as §3

[19] = test system: M. smegmatis mc^2155 (wild type)
Protocol: as §3

[20] = test system: M. smegmatis mutant I64; conditions: I64, FIG. 6
Protocol: as §3

[21] = test system: N[C@@H](CS)C(=O)O; test: purified protein, by the assay type; conditions: other: [ATP]=1 mM, [GlcN-Ins]=300 μM, Cys 5-400 μM; pH 7.5
Protocol: as §4

NNC(=O)c1ccncc1 [Isoniazid, isoniazid]
MIC [1]: > 250 µg/mL
MIC [2]: > 250 µg/mL
MIC ([3]; mutant 49, plating on antibiotic containing media, found earlier): > 50 µg/mL
isoniazid concentration to which strain 49 is resistant ([3]; strain 49 (Newton et al. 1999)): 100 μg isoniazid/ml
MIC [4]: 1 µg/mL (≈ 7.29 µM)
MIC [5]: 2 µg/mL (≈ 14.6 µM)
MIC [6]: 28 µg/mL (≈ 204 µM)
MIC [7]: 2.7 µg/mL (≈ 19.7 µM)
fold greater resistance than the wild type [8]: 16 fold

N[C@H]1[C@@H](OC2[C@H](O)[C@H](O)C(O)[C@H](O)[C@H]2O)O[C@H](CO)[C@@H](O)[C@@H]1O (stereo partly drawn) [GlcN-Ins, 1D-myo-inosityl 2-amino-2-deoxy-α-D-glucopyranoside]
Vmax (GlcN-Ins varied) [9]: 90 ± 7 nmol/min/mg
Km ([9]; read-out: apparent Km for GlcN-Ins, GlcN-Ins 5-600 μM): 72 ± 9 µM

Cc1c(C)n2c(CBr)c(C)c(=O)n2c1=O [mBBr, monobromobimane]
increase in sensitivity compared to wild type mc^2155 [10]: 4 fold
increase in sensitivity compared to wild type mc^2155 [11]: more susceptible
increase in sensitivity compared to wild type mc^2155 [12]: 4 fold

CC1=CC(=O)c2ccccc2C1=O [Menadione, menadione]
Zone of Inhibition ([13]; Tn2, 0.1 μmol agent on disk): 15.3 ± 2.0 mm
Zone of Inhibition ([13]; Tn2, 0.5 μmol agent on disk): 16.4 ± 1.9 mm
Zone of Inhibition ([14]; Tn1, 0.1 μmol agent on disk): 20.7 ± 3.8 mm
Zone of Inhibition ([14]; Tn1, 0.5 μmol agent on disk): 31.3 ± 1.3 mm
Zone of Inhibition ([15]; I64, 0.1 μmol agent on disk): 8.7 ± 0.7 mm
Zone of Inhibition ([15]; I64, 0.5 μmol agent on disk): 26.7 ± 0.9 mm
Zone of Inhibition ([16]; 0.1 μmol agent on disk): 9.7 ± 0.3 mm
Zone of Inhibition ([16]; 0.5 μmol agent on disk): 19.7 ± 0.9 mm

CN(C)C(=O)/N=N/C(=O)N(C)C [Diamide, diamide]
increase in sensitivity compared to wild type mc^2155 [10]: greater than 10 fold
increase in sensitivity compared to wild type mc^2155 [11]: doubled
increase in sensitivity compared to wild type mc^2155 [12]: greater than 10 fold

O=C1CN(/N=C/c2ccc([N+](=O)[O-])o2)C(=O)N1 [Nitrofurantoin, nitrofurantoin]
Zone of Inhibition ([13]; Tn2, 1.0 μmol agent on disk): 35.0 ± 3.6 mm
Zone of Inhibition ([14]; Tn1, 0.5 μmol agent on disk): 10.7 ± 2.6 mm
Zone of Inhibition ([14]; Tn1, 1.0 μmol agent on disk): 14.0 ± 2.7 mm
Zone of Inhibition ([15]; I64, 0.5 μmol agent on disk): 5.0 ± 0.6 mm
Zone of Inhibition ([15]; I64, 1.0 μmol agent on disk): 8.7 ± 0.3 mm
Zone of Inhibition ([16]; 0.5 μmol agent on disk): 4.7 ± 0.3 mm
Zone of Inhibition ([16]; 1.0 μmol agent on disk): 6.0 ± 0.6 mm

OO [hydrogen peroxide]
H2O2 concentration the strain is unable to tolerate ([17]; Tn2, 2 hours at 37° C., FIG. 6): ≤ 1 MM
times more sensitive to hydrogen peroxide than the wild type strain ([17]; Tn2, FIG. 6): about 10 times
H2O2 concentration the strain is unable to tolerate ([18]; Tn1, 2 hours at 37° C., FIG. 6): ≤ 1 MM
times more sensitive to hydrogen peroxide than the wild type strain ([18]; Tn1, FIG. 6): about 10 times
H2O2 concentration at which the strain can survive [19]: 10 mM
tolerance to peroxide stress [20]: intermediate between wild type mc^2155 and the transposon mutants

O=[N+]([O-])c1ccc(Cl)c([N+](=O)[O-])c1 [CDNB, 1-chloro-2,4-dinitrobenzene]
increase in sensitivity compared to wild type mc^2155 [10]: 2-3 fold
increase in sensitivity compared to wild type mc^2155 [12]: 2-3 fold

M. smegmatis Cys:GlcN-Ins ligase (MshC) (Mycolicibacterium smegmatis MC2 155)
Km [21]: 40 ± 3 µM
Vmax [21]: 83 ± 3 nmol/min/mg

CC1=CC(=O)c2c(O)cccc2C1=O [Plumbagin, plumbagin]
Zone of Inhibition ([13]; Tn2, 0.005 μmol agent on disk): 15.0 ± 0.0 mm
Zone of Inhibition ([13]; Tn2, 0.01 μmol agent on disk): 23.0 ± 1.0 mm
Zone of Inhibition ([14]; Tn1, 0.005 μmol agent on disk): 17.0 ± 0.6 mm
Zone of Inhibition ([14]; Tn1, 0.01 μmol agent on disk): 23.0 ± 1.2 mm
Zone of Inhibition ([15]; I64, 0.005 μmol agent on disk): 9.3 ± 0.9 mm
Zone of Inhibition ([15]; I64, 0.01 μmol agent on disk): 13.3 ± 1.9 mm
Zone of Inhibition ([16]; 0.005 μmol agent on disk): 11.0 ± 1.0 mm
Zone of Inhibition ([16]; 0.01 μmol agent on disk): 13.5 ± 0.5 mm

NC(=O)CI [Iodoacetamide, iodoacetamide]
increase in sensitivity compared to wild type mc^2155 [10]: 5 fold
increase in sensitivity compared to wild type mc^2155 [11]: two-fold
increase in sensitivity compared to wild type mc^2155 [12]: two-fold
